Earlier results in patent US10332616B2, “Movable type method applied to protein-ligand binding” (University of Florida Research Foundation, Inc., priority 2013, dated 2019).

System: not given
Details: aqueous solvation free energy, charged compounds (ions)

| SMILES | Exp. ΔGsolv [kcal/mol] |
| --- | --- |
| CCCN [i004, n-propylamine, reference compound] | -71.50 |

Same assay, conditions: experimental solvation free energy, neutral compounds test set

| SMILES | Exp. ΔGsolv [kcal/mol] |
| --- | --- |
| COC(=O)c1ccccc1S(=O)(=O)NC(=O)Nc1nc(C)cc(C)n1 [test1051] | -20.3 |
| Cc1ccccc1O [Compound 0055ocr] | -5.87 |
| O=S1OC[C@@H]2[C@H](CO1)[C@@]1(Cl)C(Cl)=C(Cl)[C@]2(Cl)C1(Cl)Cl (some centres unmarked) [test1029] | -4.2 |
| CCS [Compound 0137ethb] | -1.3 |
| CCCC(=O)O [Compound 0088but] | -6.36 |
| CC(=O)Nc1ccc(O)cc1 [test3001] | -14.83 |
| CCOCC [Compound 0063die] | -1.76 |
| COC(C)=O [Compound 0093met] | -3.32 |
| O=C(O)Cc1ccccc1Nc1c(Cl)cccc1Cl [test3020] | -6.3 |
| CCCCCCO [Compound 0054hex] | -4.36 |
| CCC(=O)Nc1ccc(Cl)c(Cl)c1 [test1048] | -7.8 |

Same assay, conditions: experimental solvation free energy; test set with 372 neutral compounds

| SMILES | Exp. ΔGsolv [kcal/mol] |
| --- | --- |
| CCCCO[N+](=O)[O-] [test1003] | -2.1 |
| C=CC=C [Compound 0023str] | 0.61 |
| Cc1ccccn1 [Compound 0119met] | -4.63 |
| ClC1=C(Cl)C2(Cl)C3C(Cl)C=CC3C1(Cl)C2(Cl)Cl (centres unmarked) [test1033] | -2.6 |

Molecular target: T4 Lysozyme mutant
Details: PDB ID 1LI2

| SMILES | binding affinity (pKd) |
| --- | --- |
| Oc1ccccc1 [phenol] | 4.04 |
